Values after ≈ are worked out from the molar mass of the structure shown.

This experiment concerns P388. In words: Cytotoxicity against mouse P388 cells. It is filed as functional, cell-based.

With `CC(=O)O[C@@H]1OC=C2CC[C@H]3C(C)(C)CCC[C@]3(C)[C@H]21`, the IC50 is 16.4 µg/mL (≈ 58.9 µM).

Source of the values: ChEMBL document CHEMBL1159015, “Isolation of the bioactive terpene 7-deacetoxy-olepupuane from the temperate marine sponge Dysidea sp” (J Nat Prod, 1992).
